The test system of assay [1] is PC-3. Nature of the assay: Antiproliferative activity against Docetaxel-resistant human PC-3 cells assessed as reduction in cell viability incubated for 3 days by WST-1 assay. Type of assay: functional, cell-based. The conditions noted are these: PC-3, 72 h. (Tetrazolium dyes change colour on reduction, which living cells bring about.)
Another assay deals with LNCaP. Put plainly: Antiproliferative activity against androgen-insensitive human LNCaP cells assessed as reduction in cell viability incubated for 3 days by WST-1 assay. Type of assay: functional, cell-based. The conditions noted are these: 72 h.
The test system of assay [2] is DU-145. Put plainly: Antiproliferative activity against Docetaxel-resistant human DU-145 cells assessed as reduction in cell viability incubated for 3 days by WST-1 assay. The conditions noted are these: DU-145, 72 h. Type of assay: functional, cell-based.
The test system of assay [3] is PC-3. Nature of the assay: Antiproliferative activity against androgen-insensitive human PC-3 cells assessed as reduction in cell viability incubated for 3 days by WST-1 assay. Type of assay: functional, cell-based. The conditions noted are these: PC-3, 72 h.
Assay [4] deals with DU-145. Put plainly: Antiproliferative activity against androgen-insensitive human DU-145 cells assessed as reduction in cell viability incubated for 3 days by WST-1 assay. Type of assay: functional, cell-based. The conditions noted are these: DU-145, 72 h.
Assay [5] in a line: Resistance index, ratio of IC50 for antiproliferative activity against human DU145/DTX cells to IC50 for antiproliferative activity against human DU145 cells. Type of assay: functional.
Assay [6] in a line: Resistance index, ratio of IC50 for antiproliferative activity against human PC-3/DTX cells to IC50 for antiproliferative activity against human PC-3 cells. Type of assay: functional.

We go through four compounds from ChEMBL document CHEMBL4819058, “An amide mimic of desTHPdactylolide: Total synthesis and antiproliferative evaluation” (Bioorg Med Chem Lett, 2021).

A value given as a limit tells only on which side of the number the result lay.

The IC50 is the point on the concentration scale where inhibition reaches its midpoint.

On to `C/C1=C/C=C/C(=O)N[C@@H](CO)C/C(C)=C/COCC/C=C/C(=O)C1`, for which the IC50 is > 12.5 µM in the assay with PC-3 [1]; > 12.5 µM with LNCaP; > 12.5 µM in the assay on DU-145 [2]; > 12.5 µM in the assay with PC-3 [3]; 11.1 µM in the assay on DU-145 [4].

On to `C/C1=C/C=C/C(=O)N[C@@H](C=O)C/C(C)=C/COCC/C=C/C(=O)C1`, for which the IC50 in the assay on PC-3 [1] stood at 10.2 µM; in the assay with LNCaP, 10.9 µM; in the assay with DU-145 [2] it was 10.2 µM; in the assay with PC-3 [3] it was 9.76 µM; in the assay with DU-145 [4] it was 8.48 µM. Also, the figures for the “Ratio IC50” value in assay [5] and in assay [6] were 1.2 and 1.05, respectively.

As to `COc1ccc(COC[C@H]2C/C(C)=C/COCC/C=C/C(=O)C/C(C)=C\C=C\C(=O)N2)cc1`, the IC50 in the assay on PC-3 [1] stood at 4.4 µM; with LNCaP, 6.26 µM; in the assay on DU-145 [2], 7.36 µM; in the assay on PC-3 [3], 7.7 µM; in the assay with DU-145 [4], 4.87 µM. The figures for the “Ratio IC50” value in assay [5] and in assay [6] were 1.51 and 0.57, respectively.

As for `CC(=O)O[C@@]12CO[C@@H]1C[C@H](O)[C@@]1(C)C(=O)[C@H](O)C3=C(C)[C@@H](OC(=O)[C@H](O)[C@@H](NC(=O)OC(C)(C)C)c4ccccc4)C[C@@](O)([C@@H](OC(=O)c4ccccc4)[C@H]21)C3(C)C` [DOCETAXEL ANHYDROUS], the IC50 in the assay on PC-3 [1] was determined as 2.34 µM.
